Data: ChEMBL document CHEMBL4270599, “Synthesis of a 3'-C-ethynyl-β-d-ribofuranose purine nucleoside library: Discovery of C7-deazapurine analogs as potent antiproliferative nucleosides” (Eur J Med Chem, 2018)

How the values were obtained:
[1] = test system: MDA-MB-231; experiment: Growth inhibition of human MDA-MB-231 cells assessed as cell growth at 10^-7 M incubated for 48 hrs by sulforhodamine B assay relative to control; type: functional; settings: MDA-MB-231, 48 h, read-out: Activity
[2] = test system: COLO 205; experiment: Growth inhibition of human COLO205 cells assessed as cell growth at 10^-8 M incubated for 48 hrs by sulforhodamine B assay relative to control; type: functional; settings: COLO 205, 48 h, read-out: Activity
[3] = test system: OVCAR-4; experiment: Growth inhibition of human OVCAR4 cells assessed as cell growth at 10^-8 M incubated for 48 hrs by sulforhodamine B assay relative to control; type: functional; settings: OVCAR-4, 48 h, read-out: Activity
[4] = test system: EKVX; experiment: Growth inhibition of human EKVX cells assessed as cell growth at 10^-6 M incubated for 48 hrs by sulforhodamine B assay relative to control; type: functional; settings: read-out: Activity
[5] = test system: TK-10; experiment: Growth inhibition of human TK10 cells assessed as cell growth at 10^-5 M incubated for 48 hrs by sulforhodamine B assay relative to control; type: functional; settings: TK-10, 48 h, read-out: Activity
[6] = test system: RPMI-8226; experiment: Cytotoxicity against human RPMI8226 cells after 48 hrs by SRB assay; type: functional; settings: RPMI-8226, 48 h
[7] = test system: BT-549; experiment: Cytotoxicity against human BT549 cells after 48 hrs by SRB assay; type: functional; settings: BT-549, 48 h
[8] = test system: HCT-116; experiment: Cytotoxicity against human HCT116 cells after 48 hrs by SRB assay; type: functional; settings: HCT-116, 48 h
[9] = test system: SK-OV-3; experiment: Growth inhibition of human SKOV3 cells assessed as cell growth at 10^-8 M incubated for 48 hrs by sulforhodamine B assay relative to control; type: functional; settings: SK-OV-3, 48 h, read-out: Activity
[10] = test system: T47D; experiment: Growth inhibition of human T47D cells assessed as cell growth at 10^-7 M incubated for 48 hrs by sulforhodamine B assay relative to control; type: functional; settings: read-out: Activity
[11] = test system: SW-620; experiment: Growth inhibition of human SW620 cells assessed as cell growth at 10^-8 M incubated for 48 hrs by sulforhodamine B assay relative to control; type: functional; settings: SW-620, 48 h, read-out: Activity
[12] = test system: SF-268; experiment: Growth inhibition of human SF268 cells assessed as cell growth at 10^-7 M incubated for 48 hrs by sulforhodamine B assay relative to control; type: functional; settings: SF-268, 48 h, read-out: Activity
[13] = test system: SF-268; experiment: Cytotoxicity against human SF268 cells after 48 hrs by SRB assay; type: functional; settings: SF-268, 48 h
[14] = test system: PC-3; experiment: Growth inhibition of human PC3 cells assessed as cell growth at 10^-7 M incubated for 48 hrs by sulforhodamine B assay relative to control; type: functional; settings: PC-3, 48 h, read-out: Activity
[15] = test system: UACC-257; experiment: Growth inhibition of human UACC257 cells assessed as cell growth at 10^-7 M incubated for 48 hrs by sulforhodamine B assay relative to control; type: functional; settings: UACC-257, 48 h, read-out: Activity
[16] = test system: RXF 393; experiment: Growth inhibition of human RXF393 cells assessed as cell growth at 10^-7 M incubated for 48 hrs by sulforhodamine B assay relative to control; type: functional; settings: RXF 393, 48 h, read-out: Activity
[17] = test system: HT-29; experiment: Growth inhibition of human HT-29 cells assessed as cell growth at 10^-8 M incubated for 48 hrs by sulforhodamine B assay relative to control; type: functional; settings: HT-29, 48 h, read-out: Activity
[18] = test system: K562; experiment: Cytotoxicity against human K562 cells after 48 hrs by SRB assay; type: functional; settings: K562, 48 h
[19] = test system: SN12C; experiment: Cytotoxicity against human SN12C cells after 48 hrs by SRB assay; type: functional
[20] = Antiproliferative activity against HELF cells after 4 days by Coulter counter method; type: cell-based; settings: Homo sapiens, 96 h
[21] = test system: OVCAR-5; experiment: Cytotoxicity against human OVCAR5 cells after 48 hrs by SRB assay; type: functional; settings: OVCAR-5, 48 h
[22] = test system: HOP-62; experiment: Growth inhibition of human HOP62 cells assessed as cell growth at 10^-8 M incubated for 48 hrs by sulforhodamine B assay relative to control; type: functional; settings: HOP-62, 48 h, read-out: Activity
[23] = test system: Malme-3M; experiment: Growth inhibition of human MALME-3M cells assessed as cell growth at 10^-6 M incubated for 48 hrs by sulforhodamine B assay relative to control; type: functional; settings: read-out: Activity
[24] = test system: ACHN; experiment: Growth inhibition of human ACHN cells assessed as cell growth at 10^-6 M incubated for 48 hrs by sulforhodamine B assay relative to control; type: functional; settings: read-out: Activity
[25] = test system: BT-549; experiment: Growth inhibition of human BT549 cells assessed as cell growth at 10^-7 M incubated for 48 hrs by sulforhodamine B assay relative to control; type: functional; settings: BT-549, 48 h, read-out: Activity
[26] = test system: NCI-H460; experiment: Growth inhibition of human NCI-H460 cells assessed as cell growth at 10^-8 M incubated for 48 hrs by sulforhodamine B assay relative to control; type: functional; settings: NCI-H460, 48 h, read-out: Activity
[27] = test system: NCI-H226; experiment: Cytotoxicity against human NCI-H226 cells after 48 hrs by SRB assay; type: functional; settings: NCI-H226, 48 h
[28] = test system: SNB-75; experiment: Growth inhibition of human SNB75 cells assessed as cell growth at 10^-8 M incubated for 48 hrs by sulforhodamine B assay relative to control; type: functional; settings: SNB-75, 48 h, read-out: Activity
[29] = test system: OVCAR-8; experiment: Growth inhibition of human OVCAR8 cells assessed as cell growth at 10^-8 M incubated for 48 hrs by sulforhodamine B assay relative to control; type: functional; settings: OVCAR-8, 48 h, read-out: Activity
[30] = read-out: LC50 (the source's name)
[31] = read-out: pLC50 (the source's name) (converted)

C#C[C@@]1(O)[C@@H](CO)O[C@@H](n2cc(Br)c3c(N)ncnc32)[C@@H]1O
growth at 0.1 µM [1]: 36 to 71% | growth at 0.01 µM [2]: 95 to 97% | growth at 0.01 µM [3]: 96 to 100% | growth at 1 µM [4]: 4 to 17% | growth at 10 µM [5]: 12% | GI50 ([6]; read-out: GI50): 67.3 to 242 nM | CC50 [6, 30]: > 100000 nM | TGI ([6]; read-out: TGI): 733 to 934 nM | GI50 ([7]; read-out: GI50): 147 to 234 nM | CC50 [7, 30]: > 100000 nM | TGI ([7]; read-out: TGI): 536 to 819 nM | GI50 ([8]; read-out: GI50): 25.8 to 29.2 nM | CC50 [8, 30]: > 100000 nM | TGI ([8]; read-out: TGI): > 100000 nM | TGI ([8]; read-out: pTGI (converted)): > 100000 nM | growth at 0.01 µM [9]: 91 to 93% | growth at 0.1 µM [10]: 5 to 32% | growth at 0.01 µM [11]: 81 to 89% | growth at 0.1 µM [12]: 78 to 87% | GI50 ([13]; read-out: GI50): 467 to 498 nM | CC50 [13, 30]: > 100000 nM | TGI ([13]; read-out: TGI): 33200 to 80600 nM | growth at 0.1 µM [14]: 33 to 61% | growth at 0.1 µM [15]: 70 to 93% | growth at 0.1 µM [16]: 81 to 103% | growth at 0.01 µM [17]: 78 to 94% | GI50 ([18]; read-out: GI50): 41.1 to 90 nM | CC50 [18, 30]: > 100000 nM | TGI ([18]; read-out: TGI): > 100000 nM | TGI ([18]; read-out: pTGI): > 100000 nM | GI50 ([19]; read-out: GI50): 37.7 to 218 nM | CC50 [19, 30]: > 100000 nM | TGI ([19]; read-out: TGI): > 100000 nM | TGI ([19]; read-out: pTGI (converted)): > 100000 nM | IC50 [20]: 17 nM | GI50 ([21]; read-out: GI50): 257 to 1370 nM | TGI ([21]; read-out: TGI): 56700 to 100000 nM | CC50 [21, 31]: > 100000 nM | growth at 0.01 µM [22]: 92 to 100% | growth at 1 µM [23]: 43 to 47% | growth at 1 µM [24]: 8% | growth at 0.1 µM [25]: 65 to 84% | growth at 0.01 µM [26]: 63 to 104% | GI50 ([27]; read-out: GI50): 373 to 4420 nM | TGI ([27]; read-out: TGI): 6370 to 100000 nM | CC50 [27, 31]: > 100000 nM | growth at 0.01 µM [28]: 73 to 89% | growth at 0.01 µM [29]: 53 to 76%
